For test [1], the target named is T1, human 5-HT2Ccys receptor (Homo sapiens, UniProt P28335).
T1 construct: consisting of the entire coding region of the 5-HT2C receptor; expressed in transfected cells; host or cells: Xenopus laevis oocytes injected with cRNA
T1 sequence (P28335 33-458): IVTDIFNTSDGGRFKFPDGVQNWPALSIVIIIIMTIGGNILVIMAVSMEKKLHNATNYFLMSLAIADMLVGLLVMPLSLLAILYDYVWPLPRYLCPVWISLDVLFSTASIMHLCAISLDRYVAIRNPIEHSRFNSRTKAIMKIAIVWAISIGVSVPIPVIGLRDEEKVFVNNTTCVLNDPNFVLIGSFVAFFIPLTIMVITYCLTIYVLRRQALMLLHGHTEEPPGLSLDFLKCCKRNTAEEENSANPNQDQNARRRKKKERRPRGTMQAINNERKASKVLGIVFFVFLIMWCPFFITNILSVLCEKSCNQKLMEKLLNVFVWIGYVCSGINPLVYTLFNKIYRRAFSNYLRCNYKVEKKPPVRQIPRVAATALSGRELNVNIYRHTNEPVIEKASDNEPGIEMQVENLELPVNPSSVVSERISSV
The experiment in a line: Two-electrode voltage-clamp recording of 5-HT-activated currents in Xenopus oocytes expressing 5-HT2Ccys. The format is cell-based. (In general: In two-electrode clamp one electrode senses voltage and the other passes current.)

Test [2] concerns the target T2, human 5-HT2Cser receptor (Homo sapiens, UniProt P28335).
T2 construct: consisting of the entire coding region of the 5-HT2C receptor; expressed in transfected cells; host or cells: Xenopus laevis oocytes injected with cRNA
T2 sequence (P28335 33-458): T1 sequence (P28335 33-458)
Description: Two-electrode voltage-clamp recording of 5-HT-activated currents in Xenopus oocytes expressing 5-HT2Cser. The format is cell-based.

Setting [3] is: 1 μM PPRZ, voltage-clamp at -70 mV.

With `Cl.c1ccc2c(N3CCNCC3)cccc2c1` [PPRZ, 1-(1-naphthyl) piperazine HCL], the “effect on currents activated by 10 nM 5-HT” value in test [1] (setting [3]) and in test [2] (setting [3]) was “suppressed” in each case. The “reversibility of the effect of PPRZ on 5-HT-activated response” value in test [1] (after a 20 min wash) and in test [2] (after a 20 min wash) was “reversible” each time.

The values above are taken from patent US5654139A (The United States of America as represented by the …, priority 1994, dated 1997).
